# Results from patent US20260284075A1, “UNIT DOSAGE COMPOSITION COMPRISING MIDAZOLAM” (B. Braun Melsungen AG, priority 2023, published 2026).
# Test: Pharmacokinetic evaluation of oral thin films in dogs (midazolam in plasma, LC-MS/MS)
# Type: in vivo, Marshall Beagle dogs
# Conditions: from cyclodextrin-containing films
# Procedure: To investigate the local tolerability and pharmacokinetics of the four oral thin films prepared according to Example 1, the oral thin films containing 3.0 mg of midazolam HCl (corresponding to 2.7 mg of midazolam free base) were subsequently applied to 6 non-naïve Marshall Beagle dogs (3 male weighing 8.6-11 kg and 3 female weighing 7.5-8.1 kg) with at least 3 days washout phase between the treatments. DORMICUM® 7.5 mg tablets and a Midazolam 5 mg/mL solution for injection/infusion (obtained from B. Braun) were used as reference. The dogs were fastened before dose administration and during the period of the experiment. On the days of treatment, the animals were offered their first daily meal after collection of the blood sample 2 hours after dose, and the second meal of the day was given after collection of the blood sample 6 hours after dose.
# Blood samples were taken from the dogs before the treatment, and 2, 5, 10, 30, 60, 120, and 360 minutes after the dose administration. Blood samples of approximately 2 mL were collected from the saphenous vein. […]
# The concentration of midazolam in the blood samples was determined using validated liquid chromatography-mass spectrometry (LC-MS/MS) methods. […] The concentration of analytes in unknown samples was calculated using the analyte/internal standard area ratios. […] It was well mixed and the samples analyzed by using LC-MS/MS.
smiles,measurement,value
"Cc1ncc2n1-c1ccc(Cl)cc1C(c1ccccc1F)=NC2 [midazolam, 8-chloro-6-(2-fluoropheny)-1-methyl-4H-imidazo[1,5-α][1,4]benzodiazepine]",time within which midazolam is absorbed through the oral mucosa,≤ 10 min
